What all share (type): cell-based, human
Test [1] relates to PARP. Description: PARP cleavage by Western blot in DU145 cells. The settings on record: 18 h, anti PARP antibody (FIG. 5C). As to the method: (§1) DU145 cells were treated with PUFA and incubated for 24 h (for the proliferation assay), 4 h (for the caspase assay) and for 18 h (for PARP cleavage).
(§2) Proliferation was quantitated by MTS assay. Caspases 3 and 7 were assayed by a fluorometric assay using a […] substrate. PARP cleavage was measured by Western blots using an anti PARP antibody.

Test [2] has as its system Caspases 3 and 7. As to the kind of experiment: Caspase 3 and 7 fluorometric assay in DU145 cells. As to the method:
as §1, §2

In test [3] the test system is DU145 cells. Description: DU145 tumour cell survival (MTS cell proliferation assay). The settings on record: 24 h, MTS assay (FIG. 5A). As for the experimental part: Lx compounds were tested for activity against two androgen insensitive prostate cancer tumour cell lines, DU145(liver metastases) and PC3(brain metastases). […] Survival was measured using the MTS cell proliferation assay.
Various concentrations for varying amounts of time of Lx compounds were added to either DU145 or PC3 tumour cells in culture. Viability/death of tumour cells was measured by a standard colourimetric assay. […] It is also evident from the results (FIG. 2) that the saturated nitro compound Lx1 (19:0-NO2) is not active and neither is MP2 (β-thia 23:0), a saturated […] fatty acid. […] In a further screening test, the human prostate cell line, DU145 cells (liver metastases), was treated for 24 hrs with 20 μM Fatty Acid and cell survival was measured using the MTS cell proliferation assay. This assay uses colourimetric measurement of substrate conversion to formazan which occurs only in the presence of NADH in a metabolically active cell. There was varied anti-tumour activity amongst the different types of PUFA.
as §1, §2
For orientation: Tetrazolium assays rely on reduction of a dye to a coloured formazan, in cell work by metabolically active cells.

Regarding `CC/C=C\C/C=C\C/C=C\CCCCCCCCOCC(=O)O` [MP5, (Z,Z,Z)-(octadeca-9,12,15-trienyloxy) acetic acid], the PARP cleavage result in test [1] is recorded as “cleavage of PARP”. Further, the Activation of caspases result in test [2] (DU145 cells, 4 h (FIG. 5B)) is “activation of caspases”. Further, the “Induction of apoptosis in DU145 cells” value in test [2] (concluded from caspase activation and PARP cleavage) is reported as “induce apoptosis”. In addition, in test [3], the DU145 cell proliferation entry is “marked inhibition of cell proliferation”.

For the origin of these results see patent US20050222253A1, “Anti-cancer nitro- and thia-fatty acids” (priority 1999, published 2005).
